# Data: article PMC6269892, “Ligand Binding Affinities of Arctigenin and Its Demethylated Metabolites to Estrogen Receptor Alpha” (Molecules, 2013)
# How the values were obtained:
# [1] = biological target: T1, estrogen receptor alpha (ERalpha) (Homo sapiens, UniProt P03372); test: Estrogen-R (α) competitor screening kit, ligand binding screen; conditions: for IC50: ER alpha competitor binding, non-linear regression, one site competition; for RBA (Relative binding affinity): IC50 of estradiol divided by IC50 of the tested compound, multiplied by 100, Estradiol = 100; for % Binding to ERα: mean ± S.E.M., n = 4
# T1 construct: purchased Wako Chemicals (Osaka, Japan)
# T1 sequence (P03372 1-595): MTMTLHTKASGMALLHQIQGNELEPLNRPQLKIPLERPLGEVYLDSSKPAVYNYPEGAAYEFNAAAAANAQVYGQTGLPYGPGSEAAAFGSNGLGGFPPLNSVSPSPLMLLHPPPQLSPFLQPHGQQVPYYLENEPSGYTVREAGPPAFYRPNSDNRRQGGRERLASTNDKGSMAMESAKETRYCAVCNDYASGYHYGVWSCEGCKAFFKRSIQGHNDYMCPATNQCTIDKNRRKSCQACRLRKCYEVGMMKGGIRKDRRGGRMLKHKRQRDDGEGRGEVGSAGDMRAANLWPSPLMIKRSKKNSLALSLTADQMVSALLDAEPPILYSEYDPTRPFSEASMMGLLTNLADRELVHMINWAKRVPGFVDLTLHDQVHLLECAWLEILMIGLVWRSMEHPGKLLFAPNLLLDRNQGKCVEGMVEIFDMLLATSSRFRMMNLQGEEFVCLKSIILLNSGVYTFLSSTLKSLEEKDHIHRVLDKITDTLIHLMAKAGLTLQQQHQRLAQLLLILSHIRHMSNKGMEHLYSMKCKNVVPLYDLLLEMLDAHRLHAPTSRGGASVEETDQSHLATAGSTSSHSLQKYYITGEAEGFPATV
# Protocol: An estrogen-R (α) competitor screening kit was purchased from Wako Chemicals (Osaka, Japan). The assay depends on the competition between the samples applied in different concentrations and the labeled estrogen mixture. The amount of the ligand that binds to the ERalpha coated on the microplate well is determined by the dynamic equilibrium among all the ligand concentrations in the mixture, the difference of their binding affinities to the receptor, and the incubation time. Therefore, the reduction in fluorescence intensities from the labeled estrogen retained is an indication of the affinity of the added compounds to the estrogen receptor. (−)-Arctigenin (8) and its metabolites were tested in 10^−5, 10^−4, 5 × 10^−4, and 5 × 10^−3 M concentrations. […] The results were calculated as percentages of the negative control.
# Each set of experiments was repeated at least three times. Values are expressed as mean ± S.E.M. One-way analysis of variance followed by Dunnett’s test was used for statistical analysis. The IC50 was calculated using a non-linear regression analysis (for one site competition).
# [2] = system: MCF-7 human breast cancer cells; design: method as in earlier work; conditions: estradiol-mediated proliferative characteristics; ref 10 (Xie et al.); cited from earlier work
# [3] = compound at 5 × 10^−3 M, percentage of the negative control
# [4] = compound at 5 × 10^−4 M, percentage of the negative control
# [5] = compound at 10^−4 M, percentage of the negative control
# [6] = compound at 10^−5 M, percentage of the negative control (labeled estrogen mixture)
Structure (SMILES),IC50 [1] [µM],RBA (Relative binding affinity) [1],"% Binding to ERα [1, 3] [%]","% Binding to ERα [1, 4] [%]","% Binding to ERα [1, 5] [%]","% Binding to ERα [1, 6] [%]",proliferation of MCF-7 human breast cancer cells [2]
"O=C1OC[C@H](Cc2ccc(O)c(O)c2)[C@H]1Cc1ccc(O)c(O)c1 [Compound 1, (−)-dihydroxyenterolactone]",1600,1.2 × 10^−3,65.3 ± 0.2,34.8 ± 1.3,13.7 ± 0.7,5.6 ± 3.3,
"COc1cc(C[C@H]2C(=O)OC[C@@H]2Cc2ccc(O)c(O)c2)ccc1O [Compound 2, (2R,3R)-2-(4-hydroxy-3-methoxybenzyl)-3-(3,4-dihydroxybenzyl)-butyrolactone]",790,2.5 × 10^−3,67.7 ± 0.2,44.4 ± 0.9,13.5 ± 2.0,1.4 ± 1.2,
COc1cc(C[C@H]2COC(=O)[C@@H]2Cc2ccc(O)c(O)c2)ccc1O [Compound 3],1900,1.0 × 10^−3,67.5 ± 0.2,25.8 ± 0.8,14.1 ± 1.3,2.2 ± 1.6,
"COc1cc(C[C@H]2C(=O)OC[C@@H]2Cc2ccc(OC)c(OC)c2)ccc1O [Compound 8, (−)-arctigenin]",> 5000,,19.4 ± 1.5,−4.1 ± 3.5,−4.3 ± 0.8,−1.4 ± 0.8,

# More lines, main results first:
IC50 [1] [µM],RBA (Relative binding affinity) [1],"% Binding to ERα [1, 3] [%]","% Binding to ERα [1, 4] [%]","% Binding to ERα [1, 5] [%]","% Binding to ERα [1, 6] [%]",Structure (SMILES),proliferation of MCF-7 human breast cancer cells [2]
2500,7.9 × 10^−4,63.2 ± 0.3,19.6 ± 2.3,−0.5 ± 0.7,1.0 ± 1.4,COc1ccc(C[C@H]2COC(=O)[C@@H]2Cc2ccc(O)c(O)c2)cc1O [Compound 4],
> 5000,,17.6 ± 1.1,0.1 ± 2.6,18.1 ± 9.0,0.4 ± 0.9,"COc1cc(C[C@H]2COC(=O)[C@@H]2Cc2ccc(O)c(OC)c2)ccc1O [Compound 5, (−)-matairesinol]",
2500,7.9 × 10^−4,64.5 ± 0.2,16.6 ± 0.9,1.4 ± 2.4,−2.3 ± 0.9,COc1ccc(C[C@H]2COC(=O)[C@@H]2Cc2ccc(O)c(O)c2)cc1OC [Compound 6],stimulated the proliferation
> 5000,,30.1 ± 1.7,−4.2 ± 0.8,1.2 ± 1.7,3.6 ± 0.6,COc1ccc(C[C@H]2COC(=O)[C@@H]2Cc2ccc(O)c(OC)c2)cc1O [Compound 7],
